Assay results published in the NIST ThermoML archive (doi:10.1016/j.jct.2008.07.005).
Numbers after ± are expanded uncertainties.

Assay: xn = mol fraction of the nth substance listed
Details: 98.93 kPa, Liquid

CCCO [propan-1-ol] + O
mass density [kg/m3]
Details	283.15 K	288.15 K	293.15 K	298.15 K	303.15 K	308.15 K
x1 = 0.002	998.53 ± 1.3	997.69 ± 1.3	996.58 ± 1.2	995.4 ± 1.3	994.2 ± 1.3	992.72 ± 1.4
x1 = 0.005	996.91 ± 1.3	996.06 ± 1.3	994.95 ± 1.2	993.76 ± 1.3	992.54 ± 1.3	991.05 ± 1.4
x1 = 0.009	994.87 ± 1.3	994 ± 1.3	992.87 ± 1.2	991.66 ± 1.3	990.43 ± 1.3	988.92 ± 1.4
x1 = 0.01	994.38 ± 1.3	993.49 ± 1.3	992.36 ± 1.2	991.14 ± 1.3	989.92 ± 1.3	988.4 ± 1.4
x1 = 0.02	989.99 ± 1.3	988.99 ± 1.2	987.82 ± 1.2	986.54 ± 1.3	985.27 ± 1.3	983.68 ± 1.4
x1 = 0.03	986.29 ± 1.3	985.17 ± 1.2	983.91 ± 1.2	982.56 ± 1.2	981.2 ± 1.3	979.57 ± 1.4
x1 = 0.05	979.96 ± 1.3	978.27 ± 1.2	977.1 ± 1.2	975.49 ± 1.2	973.96 ± 1.3	972.3 ± 1.4
x1 = 0.065	975.01 ± 1.3	972.88 ± 1.2	971.86 ± 1.2	969.94 ± 1.2	968.38 ± 1.3	966.41 ± 1.4
x1 = 0.08	969.18 ± 1.3	966.99 ± 1.2	965.87 ± 1.2	963.72 ± 1.2	961.92 ± 1.3	959.82 ± 1.4
x1 = 0.1	960.42 ± 1.3	958.48 ± 1.2	957.26 ± 1.2	954.91 ± 1.2	952.93 ± 1.3	950.64 ± 1.3
x1 = 0.13	947.97 ± 1.3	946 ± 1.2	944.52 ± 1.2	941.96 ± 1.2	939.8 ± 1.3	937.47 ± 1.3
x1 = 0.15	940.47 ± 1.3	938.48 ± 1.2	936.78 ± 1.1	934.12 ± 1.2	931.81 ± 1.3	929.47 ± 1.3
x1 = 0.17	933.5 ± 1.3	931.45 ± 1.2	929.49 ± 1.1	926.68 ± 1.2	924.32 ± 1.2	922.05 ± 1.3
x1 = 0.1856	928.41 ± 1.2	926.35 ± 1.2	924.19 ± 1.1	921.23 ± 1.2	918.84 ± 1.2	916.61 ± 1.3
x1 = 0.2	923.98 ± 1.2	921.89 ± 1.2	919.56 ± 1.1	916.46 ± 1.2	914.04 ± 1.2	911.83 ± 1.3

OCCCO [propan-1,3-diol] + O
mass density [kg/m3]
Details	283.15 K	288.15 K	293.15 K	298.15 K	303.15 K	308.15 K
x1 = 0.002	1000.12 ± 1.3	999.49 ± 1.3	998.61 ± 1.2	997.63 ± 1.3	996.05 ± 1.3	994.51 ± 1.4
x1 = 0.005	1000.99 ± 1.3	1000.34 ± 1.3	999.44 ± 1.2	998.44 ± 1.3	996.84 ± 1.3	995.27 ± 1.4
x1 = 0.01	1002.44 ± 1.3	1001.75 ± 1.3	1000.81 ± 1.2	999.76 ± 1.3	998.14 ± 1.3	996.53 ± 1.4
x1 = 0.019	1005.28 ± 1.3	1004.53 ± 1.3	1003.5 ± 1.2	1002.37 ± 1.3	1000.71 ± 1.4	999 ± 1.4
x1 = 0.03	1008.07 ± 1.3	1007.24 ± 1.3	1006.13 ± 1.2	1004.91 ± 1.3	1003.2 ± 1.4	1001.41 ± 1.4
x1 = 0.04	1010.8 ± 1.4	1009.9 ± 1.3	1008.71 ± 1.2	1007.39 ± 1.3	1005.63 ± 1.4	1003.75 ± 1.4
x1 = 0.05	1013.46 ± 1.4	1012.49 ± 1.3	1011.23 ± 1.2	1009.82 ± 1.3	1008 ± 1.4	1006.03 ± 1.4
x1 = 0.065	1017.32 ± 1.4	1016.24 ± 1.3	1014.85 ± 1.2	1013.31 ± 1.3	1011.4 ± 1.4	1009.3 ± 1.4
x1 = 0.08	1021.01 ± 1.4	1019.75 ± 1.3	1018.24 ± 1.3	1016.57 ± 1.3	1014.57 ± 1.4	1012.35 ± 1.4
x1 = 0.1	1025.57 ± 1.4	1024.07 ± 1.3	1022.38 ± 1.3	1020.58 ± 1.3	1018.45 ± 1.4	1016.06 ± 1.5
x1 = 0.125	1030.69 ± 1.4	1028.92 ± 1.3	1027.01 ± 1.3	1025.02 ± 1.4	1022.73 ± 1.4	1020.19 ± 1.5
x1 = 0.1526	1035.61 ± 1.4	1033.62 ± 1.4	1031.48 ± 1.3	1029.18 ± 1.4	1026.8 ± 1.4	1024.09 ± 1.5
x1 = 0.17	1038.35 ± 1.4	1036.24 ± 1.4	1033.94 ± 1.3	1031.44 ± 1.4	1029.04 ± 1.4	1026.23 ± 1.5
x1 = 0.18	1039.8 ± 1.4	1037.62 ± 1.4	1035.24 ± 1.3	1032.61 ± 1.4	1030.2 ± 1.4	1027.36 ± 1.5
x1 = 0.2	1042.35 ± 1.4	1040.04 ± 1.4	1037.56 ± 1.3	1034.66 ± 1.4	1032.25 ± 1.4	1029.35 ± 1.5

OCC(O)CO [glycerol] + O
mass density [kg/m3]
Details	283.15 K	288.15 K	293.15 K	298.15 K	303.15 K	308.15 K
x1 = 0.002	1002.15 ± 1.3	1001.53 ± 1.3	1000.6 ± 1.2	999.43 ± 1.3	998.01 ± 1.3	996.37 ± 1.4
x1 = 0.005	1005.76 ± 1.3	1005.11 ± 1.3	1004.14 ± 1.2	1002.93 ± 1.3	1001.48 ± 1.4	999.81 ± 1.4
x1 = 0.01	1011.64 ± 1.4	1010.93 ± 1.3	1009.9 ± 1.2	1008.63 ± 1.3	1007.12 ± 1.4	1005.42 ± 1.4
x1 = 0.019	1022.85 ± 1.4	1022.06 ± 1.3	1020.89 ± 1.2	1019.51 ± 1.3	1017.89 ± 1.4	1016.12 ± 1.5
x1 = 0.03	1033.4 ± 1.4	1032.52 ± 1.3	1031.22 ± 1.3	1029.73 ± 1.3	1028.03 ± 1.4	1026.18 ± 1.4
x1 = 0.04	1043.36 ± 1.4	1042.38 ± 1.3	1040.97 ± 1.3	1039.37 ± 1.4	1037.58 ± 1.4	1035.66 ± 1.5
x1 = 0.05	1052.76 ± 1.4	1051.69 ± 1.4	1050.15 ± 1.3	1048.46 ± 1.4	1046.58 ± 1.4	1044.59 ± 1.5
x1 = 0.065	1065.9 ± 1.4	1064.68 ± 1.4	1062.99 ± 1.3	1061.17 ± 1.4	1059.16 ± 1.4	1057.08 ± 1.5
x1 = 0.08	1078.01 ± 1.5	1076.64 ± 1.4	1074.81 ± 1.4	1072.85 ± 1.4	1070.74 ± 1.5	1068.56 ± 1.5
x1 = 0.1	1092.7 ± 1.5	1091.17 ± 1.4	1089.16 ± 1.4	1087.05 ± 1.4	1084.79 ± 1.5	1082.51 ± 1.6
x1 = 0.125	1109.07 ± 1.5	1107.35 ± 1.5	1105.15 ± 1.4	1102.86 ± 1.5	1100.45 ± 1.5	1098.03 ± 1.6
x1 = 0.1526	1124.96 ± 1.6	1123.05 ± 1.5	1120.68 ± 1.5	1118.23 ± 1.5	1115.66 ± 1.6	1113.11 ± 1.6
x1 = 0.17	1133.96 ± 1.6	1131.96 ± 1.5	1129.5 ± 1.5	1126.96 ± 1.5	1124.3 ± 1.6	1121.66 ± 1.6
x1 = 0.18	1138.83 ± 1.6	1136.77 ± 1.5	1134.27 ± 1.5	1131.68 ± 1.5	1128.97 ± 1.6	1126.28 ± 1.7
x1 = 0.2	1147.94 ± 1.6	1145.78 ± 1.6	1143.22 ± 1.5	1140.54 ± 1.6	1137.73 ± 1.6	1134.94 ± 1.7

CC(O)CO (stereo not given) [1,2-propanediol] + O
mass density [kg/m3]
Details	283.15 K	288.15 K	293.15 K	298.15 K	303.15 K	308.15 K
x1 = 0.002	1000.28 ± 1.3	999.66 ± 1.3	998.73 ± 1.2	997.56 ± 1.3	996.13 ± 1.3	994.48 ± 1.4
x1 = 0.005	1001.15 ± 1.3	1000.5 ± 1.3	999.55 ± 1.2	998.32 ± 1.3	996.87 ± 1.3	995.17 ± 1.4
x1 = 0.01	1002.65 ± 1.3	1001.93 ± 1.3	1000.93 ± 1.2	999.63 ± 1.3	998.12 ± 1.3	996.34 ± 1.4
x1 = 0.019	1005.45 ± 1.3	1004.9 ± 1.3	1003.81 ± 1.2	1002.37 ± 1.3	1000.73 ± 1.4	998.77 ± 1.4
x1 = 0.03	1008.94 ± 1.3	1007.94 ± 1.3	1006.74 ± 1.2	1005.17 ± 1.3	1003.41 ± 1.4	1001.32 ± 1.4
x1 = 0.04	1012.38 ± 1.4	1011.16 ± 1.3	1009.69 ± 1.2	1008.04 ± 1.3	1006.07 ± 1.4	1003.85 ± 1.4
x1 = 0.05	1015.77 ± 1.4	1014.38 ± 1.3	1012.66 ± 1.2	1010.8 ± 1.3	1008.65 ± 1.4	1006.42 ± 1.4
x1 = 0.065	1020.67 ± 1.4	1018.96 ± 1.3	1016.94 ± 1.3	1014.74 ± 1.3	1012.36 ± 1.4	1010.15 ± 1.4
x1 = 0.08	1025.18 ± 1.4	1023.18 ± 1.3	1020.8 ± 1.3	1018.36 ± 1.3	1015.78 ± 1.4	1013.54 ± 1.4
x1 = 0.1	1030.57 ± 1.4	1027.89 ± 1.4	1025.18 ± 1.3	1022.6 ± 1.4	1019.88 ± 1.4	1017.51 ± 1.5
x1 = 0.125	1035.97 ± 1.4	1032.58 ± 1.4	1029.58 ± 1.3	1027.01 ± 1.4	1024.14 ± 1.4	1021.52 ± 1.5
x1 = 0.1526	1039.91 ± 1.5	1036.53 ± 1.4	1033.34 ± 1.3	1030.86 ± 1.4	1028.08 ± 1.4	1024.73 ± 1.5
x1 = 0.17	1041.79 ± 1.5	1038.5 ± 1.4	1035.11 ± 1.3	1032.86 ± 1.4	1030.11 ± 1.4	1026.33 ± 1.5
x1 = 0.18	1042.67 ± 1.5	1039.47 ± 1.4	1035.98 ± 1.3	1033.9 ± 1.4	1031.1 ± 1.5	1027.06 ± 1.6
x1 = 0.2	1043.92 ± 1.5	1041 ± 1.4	1037.19 ± 1.3	1035.6 ± 1.4	1032.73 ± 1.5	1027.98 ± 1.6
